Test results: ChEMBL document CHEMBL5046276 (J Med Chem, 2022)

How the values were obtained:
Plasmodium falciparum [1] = experiment: Antimalarial activity against asexual blood stage chloroquine-resistant Plasmodium falciparum Dd2 assessed as parasite growth inhibition incubated for 72 hrs by SYBR Green I staining based fluorescence analysis; type: functional, organism-based; conditions: Dd2, 72 h
[2] = Cytotoxicity against human HepG2 cells incubated for 72 hrs by CCK-8 assay
[3] = Selectivity index, ratio of IC50 for cytotoxicity against human HepG2 cells to IC50 for antimalarial activity against asexual blood stage wild-type Plasmodium falciparum 3D7; type: toxicity, cell-based; conditions: read-out: Ratio IC50
Plasmodium falciparum [4] = experiment: Antimalarial activity against asexual blood stage wild-type Plasmodium falciparum 3D7 assessed as parasite growth inhibition incubated for 72 hrs by SYBR Green I staining based fluorescence analysis; type: functional, organism-based; conditions: 3D7, 72 h
[5] = Cytotoxicity against HEK293T cells incubated for 72 hrs by CCK-8 assay; conditions: human
[6] = Selectivity index, ratio of IC50 for cytotoxicity against HEK293T cells to IC50 for antimalarial activity against asexual blood stage wild-type Plasmodium falciparum 3D7; type: toxicity, cell-based; conditions: human, read-out: Ratio IC50

O=C(NO)c1cnc(N2CCC3(CN(CC4CCCC4)C3)C2)nc1
IC50 (Plasmodium falciparum [1]): 0.0189 µM
IC50 at 72 h [2]: 1.06 µM
selectivity ratio [3]: 64

O=C(NO)c1cnc(N2CCC3(CN(Cc4cccc5ccccc45)C3)C2)nc1
IC50 (Plasmodium falciparum [4]): 0.00446 µM
IC50 (Plasmodium falciparum [1]): 0.00438 µM
IC50 at 72 h [2]: > 0.77 µM
IC50 at 72 h [5]: 2.7 µM
selectivity ratio [3]: > 173
selectivity ratio [6]: 605

Cn1nc(CN2CC3(CCN(c4ncc(C(=O)NO)cn4)C3)C2)c2ccccc21
IC50 (Plasmodium falciparum [4]): 0.00979 µM
IC50 (Plasmodium falciparum [1]): 0.0127 µM
IC50 at 72 h [2]: 2.13 µM
IC50 at 72 h [5]: 7.31 µM
selectivity ratio [3]: 218
selectivity ratio [6]: 767

O=C(NO)c1cnc(N2CCC3(CN(Cc4ccc5ccccc5c4)C3)C2)nc1
IC50 (Plasmodium falciparum [4]): 0.00989 µM
IC50 (Plasmodium falciparum [1]): 0.0132 µM
IC50 at 72 h [2]: 2.13 µM
IC50 at 72 h [5]: 4.37 µM
selectivity ratio [3]: 215
selectivity ratio [6]: 442

Cn1cc(CN2CC3(CCN(c4ncc(C(=O)NO)cn4)C3)C2)c2ccncc21
IC50 (Plasmodium falciparum [4]): 0.00457 µM
IC50 (Plasmodium falciparum [1]): 0.00959 µM
IC50 at 72 h [2]: > 20 µM
IC50 at 72 h [5]: > 20 µM
selectivity ratio [3]: > 1370
selectivity ratio [6]: > 1370

Cc1ccc2c(CN3CC4(CCN(c5ncc(C(=O)NO)cn5)C4)C3)cn(C)c2c1
IC50 (Plasmodium falciparum [4]): 0.00445 µM
IC50 (Plasmodium falciparum [1]): 0.00325 µM
IC50 at 72 h [2]: 0.5 µM
IC50 at 72 h [5]: 1.1 µM
selectivity ratio [3]: 112
selectivity ratio [6]: 247

COc1ccc2c(CN3CC4(CCN(c5ncc(C(=O)NO)cn5)C4)C3)cn(C)c2c1
IC50 (Plasmodium falciparum [4]): 0.00597 µM
IC50 (Plasmodium falciparum [1]): 0.0051 µM
IC50 at 72 h [2]: 0.63 µM
IC50 at 72 h [5]: 0.7 µM
selectivity ratio [3]: 106
selectivity ratio [6]: 117

O=C(NO)c1cnc(N2CCC3(CN(Cc4cccc5cnccc45)C3)C2)nc1
IC50 (Plasmodium falciparum [4]): 0.0166 µM
IC50 (Plasmodium falciparum [1]): 0.0121 µM
IC50 at 72 h [2]: 2.21 µM
IC50 at 72 h [5]: 1.61 µM
selectivity ratio [3]: 133
selectivity ratio [6]: 97

Cn1cc(CN2CC3(CCN(c4ncc(C(=O)NO)cn4)C3)C2)c2ccccc21
IC50 (Plasmodium falciparum [4]): 0.00459 µM
IC50 (Plasmodium falciparum [1]): 0.00454 µM
IC50 at 72 h [2]: 0.72 µM
IC50 at 72 h [5]: 1.52 µM
selectivity ratio [3]: 157
selectivity ratio [6]: 331

O=C(NO)c1cnc(N2CCC3(CN(Cc4cncc5ccccc45)C3)C2)nc1
IC50 (Plasmodium falciparum [4]): 0.00863 µM
IC50 (Plasmodium falciparum [1]): 0.0124 µM
IC50 at 72 h [2]: 2.23 µM
IC50 at 72 h [5]: 8.06 µM
selectivity ratio [3]: 258
selectivity ratio [6]: 934

O=C(NO)c1cnc(N2CCC3(CN(Cc4csc5ccccc45)C3)C2)nc1
IC50 (Plasmodium falciparum [4]): 0.01 µM
IC50 (Plasmodium falciparum [1]): 0.00788 µM
IC50 at 72 h [2]: 0.49 µM
IC50 at 72 h [5]: 2.58 µM
selectivity ratio [3]: 49
selectivity ratio [6]: 257

O=C(NO)c1cnc(N2CCC3(CN(Cc4cc5ccccc5s4)C3)C2)nc1
IC50 (Plasmodium falciparum [4]): 0.00578 µM
IC50 (Plasmodium falciparum [1]): 0.00857 µM
IC50 at 72 h [2]: 3.61 µM
IC50 at 72 h [5]: 4.59 µM
selectivity ratio [3]: 625
selectivity ratio [6]: 794

O=C(NO)c1cnc(N2CCC3(CN(Cc4cnc5ccccn45)C3)C2)nc1
IC50 (Plasmodium falciparum [4]): 0.0122 µM
IC50 (Plasmodium falciparum [1]): 0.0085 µM
IC50 at 72 h [2]: 20 µM
IC50 at 72 h [5]: 2.37 µM
selectivity ratio [3]: > 1640
selectivity ratio [6]: 195

O=C(NO)c1cnc(N2CCC3(CN(Cc4ccoc4)C3)C2)nc1
IC50 (Plasmodium falciparum [4]): 0.0376 µM
IC50 (Plasmodium falciparum [1]): 0.0401 µM
IC50 at 72 h [2]: 6.03 µM
IC50 at 72 h [5]: 16.2 µM
selectivity ratio [3]: 160
selectivity ratio [6]: 431

O=C(NO)c1cnc(N2CCC3(CN(Cc4cccs4)C3)C2)nc1
IC50 (Plasmodium falciparum [4]): 0.0152 µM
IC50 (Plasmodium falciparum [1]): 0.0591 µM
IC50 at 72 h [2]: 2.51 µM
IC50 at 72 h [5]: > 4.93 µM
selectivity ratio [3]: 165
selectivity ratio [6]: > 324

O=C(NO)c1cnc(N2CCC3(CN(Cc4cccnc4)C3)C2)nc1
IC50 (Plasmodium falciparum [4]): 0.047 µM
IC50 (Plasmodium falciparum [1]): 2.23 µM
IC50 at 72 h [2]: 11.4 µM
IC50 at 72 h [5]: > 20 µM
selectivity ratio [3]: 243
selectivity ratio [6]: > 426

O=C(NO)c1cnc(N2CCC3(CN(Cc4ccc(-c5ccccc5)cc4)C3)C2)nc1
IC50 (Plasmodium falciparum [4]): 0.0229 µM
IC50 (Plasmodium falciparum [1]): 0.0434 µM
IC50 at 72 h [2]: 3.14 µM
IC50 at 72 h [5]: 3.99 µM
selectivity ratio [3]: 137
selectivity ratio [6]: 174

O=C(NO)c1cnc(N2CCC3(CN(Cc4c5ccccc5cc5ccccc45)C3)C2)nc1
IC50 (Plasmodium falciparum [4]): 0.00931 µM
IC50 (Plasmodium falciparum [1]): 0.00556 µM
IC50 at 72 h [2]: 31 µM
IC50 at 72 h [5]: 0.46 µM
selectivity ratio [6]: 49

O=C(NO)c1cnc(N2CCC3(CN(Cc4ccc5ncccc5c4)C3)C2)nc1
IC50 (Plasmodium falciparum [4]): 0.0171 µM
IC50 (Plasmodium falciparum [1]): 0.0119 µM
IC50 at 72 h [2]: 1.54 µM
IC50 at 72 h [5]: 1.74 µM
selectivity ratio [3]: 90
selectivity ratio [6]: 102

O=C(NO)c1cnc(N2CCC3(CN(Cc4cccc5cccnc45)C3)C2)nc1
IC50 (Plasmodium falciparum [4]): 0.0132 µM
IC50 (Plasmodium falciparum [1]): 0.0162 µM
IC50 at 72 h [2]: 2.66 µM
IC50 at 72 h [5]: 5.58 µM
selectivity ratio [3]: 202
selectivity ratio [6]: 423

Cn1cc(CN2CC3(CCN(c4ncc(C(=O)NO)cn4)C3)C2)c2cnccc21
IC50 (Plasmodium falciparum [4]): 0.022 µM
IC50 (Plasmodium falciparum [1]): 0.0142 µM
IC50 at 72 h [2]: > 20 µM
IC50 at 72 h [5]: > 20 µM
selectivity ratio [3]: > 908
selectivity ratio [6]: > 908

O=C(NO)c1cnc(N2CCC3(CN(Cc4ccccc4)C3)C2)nc1
IC50 (Plasmodium falciparum [4]): 0.0255 µM
IC50 (Plasmodium falciparum [1]): 0.0669 µM
IC50 at 72 h [2]: 0.42 µM
IC50 at 72 h [5]: 1.98 µM
selectivity ratio [3]: 16
selectivity ratio [6]: 78

O=C(NO)c1cnc(N2CCC3(CN(Cc4ccncc4)C3)C2)nc1
IC50 (Plasmodium falciparum [4]): 0.137 µM
IC50 (Plasmodium falciparum [1]): 8.42 µM
IC50 at 72 h [2]: 20 µM
IC50 at 72 h [5]: > 20 µM
selectivity ratio [3]: > 146
selectivity ratio [6]: > 146

O=C(NO)c1cnc(N2CCC3(CN(Cc4cccc5ccncc45)C3)C2)nc1
IC50 (Plasmodium falciparum [4]): 0.00613 µM
IC50 (Plasmodium falciparum [1]): 0.00584 µM
IC50 at 72 h [2]: 1.84 µM
IC50 at 72 h [5]: 0.93 µM
selectivity ratio [3]: 300
selectivity ratio [6]: 152

O=C(NO)c1cnc(N2CCC3(CN(Cc4ccccn4)C3)C2)nc1
IC50 (Plasmodium falciparum [4]): 0.0446 µM
IC50 (Plasmodium falciparum [1]): 0.0308 µM
IC50 at 72 h [2]: 8.37 µM
IC50 at 72 h [5]: > 20 µM
selectivity ratio [3]: 188
selectivity ratio [6]: > 449

O=C(NO)c1cnc(N2CCC3(CN(Cc4ccco4)C3)C2)nc1
IC50 (Plasmodium falciparum [4]): 0.0762 µM
IC50 (Plasmodium falciparum [1]): 0.117 µM
IC50 at 72 h [2]: 10.9 µM
IC50 at 72 h [5]: 20 µM
selectivity ratio [3]: 144
selectivity ratio [6]: > 263

O=C(NO)c1cnc(N2CCC3(CN(CC4CCCCC4)C3)C2)nc1
IC50 (Plasmodium falciparum [4]): 0.0222 µM
IC50 (Plasmodium falciparum [1]): 0.019 µM
IC50 at 72 h [2]: 1.03 µM
IC50 at 72 h [5]: 3.56 µM
selectivity ratio [3]: 46
selectivity ratio [6]: 160

Cn1cc(CN2CC3(CCN(c4ncc(C(=O)NO)cn4)C3)C2)c2cccnc21
IC50 (Plasmodium falciparum [4]): 0.0104 µM
IC50 (Plasmodium falciparum [1]): 0.00783 µM
IC50 at 72 h [2]: > 12.2 µM
IC50 at 72 h [5]: 6.17 µM
selectivity ratio [3]: > 1170
selectivity ratio [6]: 594

O=C(NO)c1cnc(N2CCC3(CN(Cc4cc5ccccc5o4)C3)C2)nc1
IC50 (Plasmodium falciparum [4]): 0.00716 µM
IC50 (Plasmodium falciparum [1]): 0.00516 µM
IC50 at 72 h [2]: 3.89 µM
IC50 at 72 h [5]: 5.62 µM
selectivity ratio [3]: 543
selectivity ratio [6]: 785

O=C(NO)c1cnc(N2CCC3(CN(Cc4ccsc4)C3)C2)nc1
IC50 (Plasmodium falciparum [4]): 0.00625 µM
IC50 (Plasmodium falciparum [1]): 0.00386 µM
IC50 at 72 h [2]: 2.46 µM
IC50 at 72 h [5]: 4.62 µM
selectivity ratio [3]: 394
selectivity ratio [6]: 739
